According to patent US11229654B2, “Combination therapy of tetracyclic quinolone analogs for treating cancer” (Senhwa Biosciences, Inc., priority 2015, dated 2022):
Like-named read-outs stand apart in the source and are kept apart here.

Columns and labels:
MC116 cell = test: Anti-proliferation assay (MTS), MC116 cells; type: cell-based, human
Description: (§1) Three human Lymphoma cell lines Toledo, MC116 and HT were purchased from the Bioresource Collection and Research Center (BCRC, Taiwan). All cells were incubated in a humidified atmosphere containing 5% C02 at 37° C.
(§2) CAL-101, also known as Idelalisib, is a PI3K-delta inhibitor with potential immunomodulating and antineoplastic activities. Anticancer activity of the combination of Compound A and CAL-101 on three human Lymphoma cell lines (Toledo, MC116, HT) was assessed using in vitro cell proliferation assay. Cell proliferation of drug-treated human cancer cells was determined at 96 hours post-treatment using the MTS (Promega) colorimetric assay.
(§3) Corrected absorbance values were obtained by subtracting the average 490 nm absorbance of the control wells (medium only, no cell) from all other absorbance values. Percentage inhibition of cell growth for compound treatment was calculated using this formula: […]
(§4) The sigmoidal dose-response curve is generated by fitting the percentage inhibition value as a function of logarithm of compound concentrations using GraphPad Prism software. IC50 values are defined as the concentration needed for a 50% inhibition of cell growth. […] All data represent the results of triplicate experiments.
(§5) Estimated IC50 and IC25 values were calculated based on non-linear regression of the dose-response curves of the cell proliferation ratio (%) as a function of logarithm of drug concentrations in single treatments.

HT cell = test: Anti-proliferation assay (MTS), HT cells; type: cell-based, human
Description: as §1, §2, §3, §4, §5

Toledo cell = test: Anti-proliferation assay (MTS), Toledo cells; type: cell-based, human; details: for IC50 / Estimated IC25: single drug treatment, 96 hours post-treatment; for IC50: read-out: Estimated IC50
Description: as §1, §2, §3, §4, §5

[1] = test system: HBCx-39 (BRCA2 wild type) cancer cell line; test: Chemokine expression in BRCA2 wild type cancer cells; type: cell-based
Text: (§6) FIG. 8A-8C show effects of Compound A treatment on chemokine expressions in BRCA2 wild type (WT) and mutant (Mut) PDX-derived breast cancer cells.
(§7) Compound A was applied to both HBCx-39 (BRCA2 wild type) and HBCx-17 (BRCA2 mutant) cancer cell lines in vitro. HBCx-17 is a homologous recombination deficiency tumor cell line having BRCA2 mutation. […] CCL21 and CXCL9 mRNA expression in cancer cells having BRCA2 mutant compared to wild type cancer cells.

[2] = test system: BRCA1 negative (UWB1.289-2945) human ovarian cancer cell line; test: CellTiter-Glo cell viability assay, BRCA1 negative ovarian cancer cells; type: cell-based; details: for Cell toxicity of cytokine by itself: 0-5 ng/mL, BRCA1 negative ovarian cancer cell line; for Effect on cell toxicity in the presence of Compound A: cytokine 0-5 ng/mL together with Compound A
Description: (§8) BRCA1 negative (UWB1.289-2945) and BRCA1 positive (UWB1.289) human ovarian cancer cell lines were purchased from the American Type Culture Collection (ATCC). Those cell were incubated in a humidified atmosphere containing 5% C02 at 37° C.
(§9) The anticancer activity of Compound A on BRCA1 negative and BRCA1 positive human ovarian cancer cell lines were also assessed using in vitro cell proliferation assay. Cell proliferation of drug-treated human cancer cell was determined at 72 hours post-treatment using the CellTiter-Glo® Luminescent cell viability assay (Promega). IC50 values are defined as the concentration needed for a 50% inhibition of cell growth and were calculated in GraphPad. The anti-proliferative effects of Compound A alone and in combination with cytokines on these two cell lines are shown in FIGS. 4-6.
(§10) Percentage inhibition of cell growth for compound treatment was calculated using this formula: […]
(§11) The data were processed using built-in excel-macro. Cell viability/proliferation was expressed as […] with respect to the average signal from the untreated control wells of the respective plate. Out-liar values (of the triplicate) were rejected during QC. The processed data were plotted using Graphpad software. Statistical analysis was done using Excel (Microsoft) and Pair-wise comparison of two groups was made using the student's t test. All data represent the results of triplicate experiments.
(§12) Here, two types of cytokines, TNF-α and IFN-γ, were used (0, 0.008, 0.04, 0.2, 1, 5 ng/mL) in response to together with Compound A.

[3] = test system: BRCA1 positive (UWB1.289) human ovarian cancer cell line; test: CellTiter-Glo cell viability assay, BRCA1 positive ovarian cancer cells; type: cell-based; details: for Cell toxicity of cytokine by itself: 0-5 ng/mL, BRCA1 positive ovarian cancer cell line
Description: as §8, §9, §10, §11, §12

[4] = test system: HBCx-17 (BRCA2 mutant) cancer cell line; test: Chemokine expression in BRCA2 mutant cancer cells; type: cell-based
Text: as §6, §7

[5] = Homo sapiens, single drug treatment, 96 hours post-treatment, read-out: Estimated IC50
[6] = Homo sapiens, single treatment, read-out: IC50
[7] = single drug treatment, 96 hours post-treatment

Molecule	IC50 (MC116 cell; [5]) [nM]	Estimated IC25 (MC116 cell; [7]) [nM]	IC50 (HT cell; [5]) [nM]	Estimated IC25 (HT cell; [7]) [nM]	IC50 (Toledo cell; Homo sapiens) [nM]	Estimated IC25 (Toledo cell) [nM]	Cell toxicity of cytokine by itself [2]	Effect on cell toxicity in the presence of Compound A ([2]; BRCA1 negative cells)	Cell toxicity of cytokine by itself [3]	other results
CC[C@H](Nc1ncnc2[nH]cnc12)c1nc2cccc(F)c2c(=O)n1-c1ccccc1 [CAL-101]	118000 ± 29600	39286.7 ± 9871.2	10100 ± 1380	3357.3 ± 461.0	76	25.3 ± 14.9	–	–	–	inhibition at 17.5 µM (MC116 cell; Homo sapiens, IC25 conc. used: Compound A 150 nM, CAL-101 17500 nM): 9.2 ± 3.4%; inhibition at 35 µM (MC116 cell; Homo sapiens, IC50 conc. used: Compound A 450 nM, CAL-101 35000 nM): 70.4 ± 3.1%; IC50 (MC116 cell; [6]): > 10000 nM; inhibition at 2.6667 µM (HT cell; Homo sapiens, IC25 conc. used: Compound A 133.3 nM, CAL-101 2666.7 nM): 19.7 ± 4.3%; inhibition at 8 µM (HT cell; Homo sapiens, IC50 conc. used: Compound A 400 nM, CAL-101 8000 nM): 37.6 ± 1.5%; IC50 (HT cell; [6]): > 10000 nM; inhibition at 0.4 µM (Toledo cell; Homo sapiens, IC50 conc. used: Compound A 50 nM, CAL-101 400 nM): 49.6 ± 1.7%
Cc1cnc(CNC(=O)c2c(=O)c3ccc(N4CCCN(C)CC4)nc3n3c2sc2ccccc23)cn1 [Compound A, 2-(4-Methyl-[1,4]diazepan-1-yl)-5-oxo-5H-7-thia-1,11b-diaza-benzo[c]fluorene-6-carboxylic acid (5-methyl-pyrazin-2-ylmethyl)-amide]	723	241.0 ± 6.5	526	175.1 ± 6.6	45.9	15.3 ± 0.8	–	–	–	Production of chemokines in tumor cells [1]: capable of inducing the production of several important chemokines; IC50 ([2]; Homo sapiens, BRCA1 negative cells, 72 hours post-treatment): 2.34 to 3.78 nM; Inhibition (%) (MC116 cell; IC25 conc. used: Compound A 150 nM, CAL-101 17500 nM): 44.3 ± 5.5%; Inhibition (%) (MC116 cell; IC50 conc. used: Compound A 450 nM, CAL-101 35000 nM): 83.4 ± 1.2%; Maximum toxicity ([3]; BRCA1 positive UWB1.289, highest concentration (100 nM), 72 hours): ≤ 40%; Inhibition (%) (HT cell; IC25 conc. used: Compound A 133.3 nM, CAL-101 2666.7 nM): 15.2 ± 0.9%; Inhibition (%) (HT cell; IC50 conc. used: Compound A 400 nM, CAL-101 8000 nM): 41.2 ± 1.9%; Inhibition (%) (Toledo cell; IC50 conc. used: Compound A 50 nM, CAL-101 400 nM): 25.6 ± 2.5%; CCL9, CCL21 and CXCL9 mRNA expression ([4]; BRCA2 mutant compared to wild type cancer cells): increased more; Production of chemokines in tumor cells ([4]; HBCx-17 BRCA2 mutant): capable of inducing the production of several important chemokines
IFN-γ: cytokine, Interferon gamma	–	–	–	–	–	–	minimal, but increasing trend of cell toxicity with increasing dose	additive effect	minimal, but increasing trend of cell toxicity with increasing dose	–
TNF-α	–	–	–	–	–	–	minimal, but increasing trend of cell toxicity with increasing dose	additive effect	minimal, but increasing trend of cell toxicity with increasing dose	–
